Source: PMC8571951, “An activity‐based bioprobe differentiates a novel small molecule inhibitor from a LOXL2 antibody and provides renewed promise for anti‐fibrotic therapeutic strategies” (Clinical and Translational Medicine, 2021)

Tests used:
[1] = molecular target: T1, native LOXL2 protein in human plasma (Homo sapiens, UniProt Q9Y4K0); assay: PXS-5878/Simoa platform, residual LOXL2 activity in human plasma; assay type: biochemical; conditions: human plasma incubated 30 min; read-out: IC50, inhibition of native LOXL2 in human plasma
T1 construct: from tissue; host or cells: human plasma (activity) and human serum (protein concentration) from clinical trial subjects
T1 sequence (Q9Y4K0 26-774): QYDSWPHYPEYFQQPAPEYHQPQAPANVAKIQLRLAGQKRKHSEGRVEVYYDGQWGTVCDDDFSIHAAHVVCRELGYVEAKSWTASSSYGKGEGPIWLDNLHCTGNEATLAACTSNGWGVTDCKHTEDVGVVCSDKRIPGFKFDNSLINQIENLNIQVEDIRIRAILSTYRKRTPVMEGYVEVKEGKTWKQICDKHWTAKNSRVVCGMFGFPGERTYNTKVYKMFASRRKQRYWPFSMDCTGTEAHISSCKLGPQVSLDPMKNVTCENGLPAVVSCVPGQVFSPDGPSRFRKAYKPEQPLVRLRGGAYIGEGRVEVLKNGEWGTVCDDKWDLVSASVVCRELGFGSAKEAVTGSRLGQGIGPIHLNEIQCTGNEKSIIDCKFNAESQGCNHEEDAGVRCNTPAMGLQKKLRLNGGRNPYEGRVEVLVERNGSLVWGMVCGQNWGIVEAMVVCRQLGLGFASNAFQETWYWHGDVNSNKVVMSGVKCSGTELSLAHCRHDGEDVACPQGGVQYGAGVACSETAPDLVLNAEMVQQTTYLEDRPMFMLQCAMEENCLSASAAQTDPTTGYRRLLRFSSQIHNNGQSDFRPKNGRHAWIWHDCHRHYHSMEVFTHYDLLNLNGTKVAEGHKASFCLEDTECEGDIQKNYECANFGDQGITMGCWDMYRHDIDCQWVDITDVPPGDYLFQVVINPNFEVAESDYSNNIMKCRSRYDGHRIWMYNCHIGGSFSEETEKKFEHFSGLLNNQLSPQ
Procedure: (§1) FIGURE 2 Characteristics of PXS‐5338 and inhibition of lysyl oxidase‐like 2 (LOXL2) enzymatic activity in vitro and in vivo. (A) Chemical structure of PXS‐5338. […] (B) Tissue levels of PXS‐5338 measured 1 and 4 h after a single oral dose of 30 mg/kg in the rat. […] Average data from three different animals. (C) Concentration‐dependent inhibition of native […] LOX and rh LOXL1‐4 in a standard Amplex Red assay with 30 min pre‐incubation; n ≥3 independent experiments, standard error of mean (SEM). (D) PXS‐5338 inhibits rh LOXL2 in a time‐dependent manner, with increasing potency observed upon longer incubation with the enzyme. LOXL2 activity data devised from Amplex Red assay using putrescine as substrate and varying pre‐incubation times; n ≥3 independent experiments, standard error of mean (SEM). […] AB0023 and the corresponding isotype control antibody GS834298 were kindly provided by Gilead. Concentration‐response curves for the pan‐LOX inhibitor BAPN and LOXL2‐selective inhibitor PXS‐5338 are included for comparison. Data represented as mean ± SD with n = 5/concentration. […] To enable translation of preclinical data into the clinic, human plasma was incubated with different concentrations of PXS‐5338 for 30 min and the PXS‐5878/Simoa® platform used to measure the residual activity. […]

[2] = Tissue levels after single oral dose in the rat; assay type: in vivo; conditions: single oral dose 30 mg/kg, 1 and 4 h
Procedure: as §1

CC(C)c1c(Cc2ccc(S(C)(=O)=O)nc2)c2ncccc2n1C/C(F)=C/CN [PXS‐5338]
IC50 [1]: 37 nM | Tissue penetration / distribution [2]: good penetration, with preferential distribution to the liver followed by the kidney, lung and heart
